From BigSolDB 2.1

Cc1cccc([N+](=O)[O-])c1N
solubility (mole fraction)
Details	in 1,4-dioxane	in acetone	in acetonitrile	in cyclohexane	in ethanol	in ethyl acetate	in isopropanol	in methanol	in n-propanol	in toluene
278.15 K	–	0.113	0.0418	–	0.0102	0.0841	0.0086	0.00739	0.0108	0.0237
280.65 K	–	0.122	0.0466	–	0.0112	0.0924	0.00945	0.00829	0.012	0.0267
283.15 K	0.18	0.132	0.0529	0.00103	0.0125	0.101	0.0105	0.00916	0.0133	0.0301
285.65 K	0.19	0.142	0.0589	0.00118	0.0139	0.11	0.0119	0.0102	0.0149	0.0336
288.15 K	0.201	0.153	0.067	0.00136	0.0154	0.121	0.0133	0.0113	0.0165	0.0375
290.65 K	0.211	0.165	0.0753	0.00158	0.017	0.131	0.0147	0.0124	0.0183	0.0417
293.15 K	0.223	0.177	0.0844	0.00181	0.019	0.142	0.0163	0.014	0.0203	0.0469
295.65 K	0.236	0.19	0.0954	0.00211	0.021	0.155	0.0183	0.0155	0.0225	0.0521
298.15 K	0.249	0.203	0.106	0.00242	0.0233	0.168	0.0202	0.0172	0.0248	0.0581
300.65 K	0.262	0.217	0.119	0.00279	0.0256	0.182	0.0225	0.0192	0.0275	0.0647
303.15 K	0.277	0.233	0.133	0.00318	0.0284	0.196	0.0249	0.0212	0.0305	0.0719
305.65 K	0.291	0.249	0.148	0.00369	0.0314	0.212	0.0277	0.0234	0.0336	0.0804
308.15 K	0.306	0.265	0.165	0.00424	0.0346	0.228	0.0306	0.0261	0.0371	0.0893
310.65 K	0.323	0.283	0.183	0.00489	0.0381	0.246	0.0339	0.0288	0.041	0.0993
313.15 K	0.339	0.301	0.203	0.00562	0.042	0.265	0.0376	0.032	0.0451	0.11
